Key:
[1] = biological target: T1, murT3_Δ250 (Mus musculus, UniProt Q3LS21); assay: Whole-cell patch clamp, C-terminally truncated mouse TASK-3; assay type: cell-based
T1 construct: Removal of the carboxy terminal of murTASK‐3 (murT3) attenuates doxapram effect further; expressed in transfected cells; host or cells: tsA201 (modified HEK293), transient transfection
From the text: (§1) Murine (mur) wild‐type (WT) TASK‐1 (KCNK3, Genbank^TM DQ185133) and WT murTASK‐3 (KCNK9, Genbank^TM AH009585.2) cDNA were cloned into pCS2^+ vector and were a kind gift from William Wisden (Imperial College, UK). Human WT TASK‐1 (Genbank^TM AF006823.1), WT TASK‐3 (Genbank^TM AF212829) and WT TASK‐2 (KCNK5, Genbank^TM AF084830.1) cDNA’s, were cloned into pcDNA3.1^+ vector (Invitrogen) and were a kind gift from Helen Meadows (GlaxoSmithKline).
(§2) Point mutations (L122D, G236D, L239D, V242D or a stop codon) were introduced by site‐directed mutagenesis into TASK‐3 cDNA using the Quikchange kit (Stratagene) as previously described.54 […]
(§3) Currents were recorded from tsA201 cells transiently transfected with the channel of interest using whole‐cell patch clamp in a voltage clamp configuration and a step‐ramp voltage protocol as previously described.54 Briefly, all experiments were conducted at room temperature (20‐24°C) using an external solution composed of 145 mM of NaCl, 2.5 mM of KCL, 3 mM of MgCl2, 1 mM of CaCl2 and 10 mM of HEPES (pH 7.4, using NaOH) and an intracellular pipette solution composed of 150 mM of KCL, 3 mM of MgCl2, 5 mM of EGTA and 10 mM of HEPES (pH adjusted to 7.4 with KOH). […] Currents were recorded using an Axopatch 1D patch clamp amplifier (Molecular Devices), filtered at 0.3 kHz, digitized at 1 kHz. […]

[2] = tested on: rat TASK-3 homodimeric channels; details: cloned rat channels; cited from earlier work
[3] = biological target: T2, human TASK-3 (Homo sapiens, UniProt Q9NPC2); assay: Whole-cell patch clamp on tsA201 cells expressing cloned human TASK-3; assay type: cell-based
T2 construct: expressed in transfected cells; host or cells: tsA201 (modified HEK293), transient transfection, pcDNA3.1+
Protocol: as §1
(§4) All experiments were performed using a modified human embryonic kidney 293 cell line, tsA201 (ECACC; Sigma‐Aldrich), prepared and maintained as previously described.54
(§5) For the electrophysiological experiments, cells were transiently transfected using a modified calcium phosphate protocol, following a process as previously described.54 Vectors cloned with the gene of interest and a similar vector encoding the cDNA for GFP were added to each well at a concentration of 0.5 µg per well, with the exception being for murTASK‐3, where 0.125 µg per well was used.
(§6) Currents were recorded from tsA201 cells transiently transfected with the channel of interest using whole‐cell patch clamp in a voltage clamp configuration and a step‐ramp voltage protocol as previously described.54 Briefly, all experiments were conducted at room temperature (20‐24°C) using an external solution composed of 145 mM of NaCl, 2.5 mM of KCL, 3 mM of MgCl2, 1 mM of CaCl2 and 10 mM of HEPES (pH 7.4, using NaOH) and an intracellular pipette solution composed of 150 mM of KCL, 3 mM of MgCl2, 5 mM of EGTA and 10 mM of HEPES (pH adjusted to 7.4 with KOH). External solution and modulatory compounds were superfused at a rate of 4‐5 mL min^−1. Currents were recorded using an Axopatch 1D patch clamp amplifier (Molecular Devices), filtered at 0.3 kHz, digitized at 1 kHz.
(§7) For analysis of outward current, we measured the current difference between the −80 and −40 mV. The current‐voltage graphs were obtained from the ramp change in voltage between −120 and +20 mV. For each cell, the current amplitude (pA) was normalized to the cell capacitance (pF). The currents obtained were analysed using pCLAMP 10.2 software (Molecular Devices), Microsoft Excel and GraphPad Prism 6 or 7 software. Data were expressed as the mean ± 95% Confidence Intervals (CI), and n represents the number of individual cells. For EC50 calculations, concentration‐response curves were fitted using the Hill equation. Statistical analysis used were one‐way ANOVA with a post‐hoc Dunnett's test or an unpaired/paired Student's t test. Data were considered statistically different if P < .05. The data and statistical analysis comply with the recommendations on experimental design and analysis in pharmacology.55

[4] = biological target: T3, TASK-3_G236D (Homo sapiens, UniProt Q9NPC2, G236D); assay: Whole-cell patch clamp, human TASK-3 pore mutant G236D; assay type: cell-based; details: 10 µM (Figure 6C); read-out: percentage inhibition of TASK-3_G236D
T3 construct: expressed in transfected cells; host or cells: tsA201 (modified HEK293), transient transfection
From the text: as §1, §2, §3

[5] = biological target: T4, murTASK-1/murTASK-3 heterodimer channels (Mus musculus, UniProt O35111+Q3LS21); assay: Whole-cell patch clamp, forced heterodimer murTASK-1/murTASK-3; assay type: cell-based
T4 construct: expressed in transfected cells; host or cells: tsA201 (modified HEK293), transient transfection
Protocol: as §1
(§8) All experiments were performed using a modified human embryonic kidney 293 cell line, tsA201 (ECACC; Sigma‐Aldrich), prepared and maintained as previously described.54 […]
(§9) Currents were recorded from tsA201 cells transiently transfected with the channel of interest using whole‐cell patch clamp in a voltage clamp configuration and a step‐ramp voltage protocol as previously described.54 Briefly, all experiments were conducted at room temperature (20‐24°C) using an external solution composed of 145 mM of NaCl, 2.5 mM of KCL, 3 mM of MgCl2, 1 mM of CaCl2 and 10 mM of HEPES (pH 7.4, using NaOH) and an intracellular pipette solution composed of 150 mM of KCL, 3 mM of MgCl2, 5 mM of EGTA and 10 mM of HEPES (pH adjusted to 7.4 with KOH). […] Currents were recorded using an Axopatch 1D patch clamp amplifier (Molecular Devices), filtered at 0.3 kHz, digitized at 1 kHz.
(§10) For analysis of outward current, we measured the current difference between the −80 and −40 mV. […]

[6] = biological target: T5, human TASK-1 (Homo sapiens, UniProt O14649); assay: Whole-cell patch clamp on tsA201 cells expressing cloned human TASK-1; assay type: cell-based
T5 construct: expressed in transfected cells; host or cells: tsA201 (modified HEK293), transient transfection, pcDNA3.1+
Protocol: as §1, §4, §5, §6, §7

[7] = tested on: rat TASK-1 homodimeric channels; details: cited from earlier work
[8] = tested on: rat TASK-1/TASK-3 heterodimeric channels; details: cloned rat channels; cited from earlier work
[9] = biological target: T6, murTASK-3 (Mus musculus, UniProt Q3LS21); assay: Whole-cell patch clamp on tsA201 cells expressing cloned mouse TASK-3; assay type: cell-based
T6 construct: expressed in transfected cells; host or cells: tsA201 (modified HEK293), transient transfection, pCS2+
Protocol: as §1, §4, §5, §6, §7

[10] = biological target: T7, human TASK-2 (Homo sapiens, UniProt O95279); assay: Whole-cell patch clamp on tsA201 cells expressing cloned human TASK-2; assay type: cell-based; details: acute application, read-out: inhibition of WT TASK-2 current
T7 construct: expressed in transfected cells; host or cells: tsA201 (modified HEK293), transient transfection, pcDNA3.1+
T7 sequence (O95279 1-499): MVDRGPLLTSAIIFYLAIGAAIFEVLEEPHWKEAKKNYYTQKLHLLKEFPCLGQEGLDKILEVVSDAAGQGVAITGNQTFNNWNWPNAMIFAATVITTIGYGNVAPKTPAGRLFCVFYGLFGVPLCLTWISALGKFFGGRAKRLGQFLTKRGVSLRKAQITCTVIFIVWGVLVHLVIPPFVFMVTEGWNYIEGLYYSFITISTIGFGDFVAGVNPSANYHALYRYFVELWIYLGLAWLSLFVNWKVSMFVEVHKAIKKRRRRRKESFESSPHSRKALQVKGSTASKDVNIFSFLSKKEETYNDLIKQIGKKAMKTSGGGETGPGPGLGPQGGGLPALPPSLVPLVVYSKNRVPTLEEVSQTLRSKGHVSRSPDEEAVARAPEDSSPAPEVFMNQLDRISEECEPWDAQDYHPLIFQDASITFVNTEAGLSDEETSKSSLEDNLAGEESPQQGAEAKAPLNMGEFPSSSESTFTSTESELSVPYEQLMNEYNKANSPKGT
Protocol: as §1, §8, §9, §10

[11] = biological target: T8, murTASK-3/murTASK-1 heterodimer channels (Mus musculus, UniProt O35111+Q3LS21); assay: Whole-cell patch clamp, forced heterodimer murTASK-3/murTASK-1; assay type: cell-based
T8 construct: expressed in transfected cells; host or cells: tsA201 (modified HEK293), transient transfection
Protocol: as §1, §8, §9, §10

[12] = biological target: T9, TASK-3_L239D (Homo sapiens, UniProt Q9NPC2, L239D); assay: Whole-cell patch clamp, human TASK-3 pore mutant L239D; assay type: cell-based; details: 10 µM (Figure 6C); read-out: percentage inhibition of TASK-3_L239D
T9 construct: expressed in transfected cells; host or cells: tsA201 (modified HEK293), transient transfection
T9 sequence (Q9NPC2 1-374 L239D): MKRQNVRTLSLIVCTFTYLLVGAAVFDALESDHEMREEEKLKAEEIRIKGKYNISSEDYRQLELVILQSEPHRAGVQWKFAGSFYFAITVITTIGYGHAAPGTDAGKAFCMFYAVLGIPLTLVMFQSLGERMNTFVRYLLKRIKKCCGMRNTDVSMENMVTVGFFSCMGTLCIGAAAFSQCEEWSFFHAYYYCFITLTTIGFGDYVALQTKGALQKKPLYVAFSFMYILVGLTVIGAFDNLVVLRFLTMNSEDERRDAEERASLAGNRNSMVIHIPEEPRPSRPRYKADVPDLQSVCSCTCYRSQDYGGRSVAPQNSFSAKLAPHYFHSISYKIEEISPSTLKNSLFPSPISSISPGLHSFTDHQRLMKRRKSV
From the text: as §1, §2, §3

[13] = biological target: T10, TASK-3_V242D (Homo sapiens, UniProt Q9NPC2, V242D); assay: Whole-cell patch clamp, human TASK-3 pore mutant V242D; assay type: cell-based; details: 10 µM (Figure 6C); read-out: percentage inhibition of TASK-3_V242D
T10 construct: expressed in transfected cells; host or cells: tsA201 (modified HEK293), transient transfection
From the text: as §1, §2, §3

[14] = biological target: T11, TASK-3_L122D (Homo sapiens, UniProt Q9NPC2, L122D); assay: Whole-cell patch clamp, human TASK-3 pore mutant L122D; assay type: cell-based
T11 construct: expressed in transfected cells; host or cells: tsA201 (modified HEK293), transient transfection
From the text: as §1, §2, §3

[15] = biological target: T12, murTASK-1 (Mus musculus, UniProt O35111); assay: Whole-cell patch clamp on tsA201 cells expressing cloned mouse TASK-1; assay type: cell-based
T12 construct: expressed in transfected cells; host or cells: tsA201 (modified HEK293), transient transfection, pCS2+
Protocol: as §1, §4, §5, §6, §7

[16] = biological target: T13, hTASK-3_Δ250 (Homo sapiens, UniProt Q9NPC2); assay: Whole-cell patch clamp, C-terminally truncated human TASK-3; assay type: cell-based
T13 construct: truncating the channel to remove the C‐terminal of the human TASK‐3 channel (hTASK‐3_Δ250); expressed in transfected cells; host or cells: tsA201 (modified HEK293), transient transfection
From the text: as §1, §2, §3

[17] = concentration-response 0.3-100 µM

T12 sequence (O35111 whole entry): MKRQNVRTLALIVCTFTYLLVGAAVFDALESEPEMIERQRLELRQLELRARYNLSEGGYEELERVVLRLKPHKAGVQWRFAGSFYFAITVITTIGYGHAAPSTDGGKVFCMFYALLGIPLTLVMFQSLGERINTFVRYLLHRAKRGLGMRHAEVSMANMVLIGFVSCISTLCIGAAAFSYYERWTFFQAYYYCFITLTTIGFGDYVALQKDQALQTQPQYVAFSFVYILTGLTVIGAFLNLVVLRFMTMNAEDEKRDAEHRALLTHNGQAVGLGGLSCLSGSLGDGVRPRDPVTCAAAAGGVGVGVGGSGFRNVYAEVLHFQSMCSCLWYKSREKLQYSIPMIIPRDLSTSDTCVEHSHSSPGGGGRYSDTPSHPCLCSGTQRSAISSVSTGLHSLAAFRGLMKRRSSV
T6 sequence (Q3LS21 whole entry): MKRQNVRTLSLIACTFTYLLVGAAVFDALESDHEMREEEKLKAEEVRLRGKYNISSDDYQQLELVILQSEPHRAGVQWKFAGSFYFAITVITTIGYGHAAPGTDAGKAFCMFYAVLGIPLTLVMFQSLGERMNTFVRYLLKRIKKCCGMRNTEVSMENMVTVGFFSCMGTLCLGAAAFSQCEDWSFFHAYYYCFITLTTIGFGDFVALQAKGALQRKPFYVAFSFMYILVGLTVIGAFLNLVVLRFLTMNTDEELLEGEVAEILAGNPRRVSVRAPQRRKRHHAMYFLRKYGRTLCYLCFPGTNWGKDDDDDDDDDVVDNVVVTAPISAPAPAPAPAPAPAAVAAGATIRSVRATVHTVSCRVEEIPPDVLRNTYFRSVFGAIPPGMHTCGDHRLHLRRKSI
T5 sequence (O14649 whole entry): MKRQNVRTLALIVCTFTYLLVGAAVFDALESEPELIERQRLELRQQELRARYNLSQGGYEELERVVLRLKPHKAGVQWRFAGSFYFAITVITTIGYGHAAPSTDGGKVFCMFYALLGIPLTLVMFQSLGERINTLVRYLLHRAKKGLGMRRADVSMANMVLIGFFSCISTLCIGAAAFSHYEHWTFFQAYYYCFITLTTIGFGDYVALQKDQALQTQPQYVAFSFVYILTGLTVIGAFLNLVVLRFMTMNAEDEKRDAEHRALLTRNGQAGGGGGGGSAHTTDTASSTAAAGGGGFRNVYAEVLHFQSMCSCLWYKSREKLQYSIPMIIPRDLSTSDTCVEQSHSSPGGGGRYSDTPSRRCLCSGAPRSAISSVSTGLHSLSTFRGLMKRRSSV
T2 sequence (Q9NPC2 whole entry): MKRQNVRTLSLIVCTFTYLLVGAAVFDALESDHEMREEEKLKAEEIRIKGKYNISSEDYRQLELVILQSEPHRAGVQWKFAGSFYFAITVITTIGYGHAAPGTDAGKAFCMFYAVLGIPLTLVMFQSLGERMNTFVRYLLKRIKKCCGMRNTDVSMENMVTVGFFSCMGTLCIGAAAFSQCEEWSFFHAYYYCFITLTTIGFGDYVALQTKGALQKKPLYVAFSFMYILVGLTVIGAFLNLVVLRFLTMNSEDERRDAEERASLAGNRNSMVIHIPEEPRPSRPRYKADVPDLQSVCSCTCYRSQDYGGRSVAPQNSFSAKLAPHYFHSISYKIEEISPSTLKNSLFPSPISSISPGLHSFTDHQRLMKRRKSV
T11 sequence (Q9NPC2 whole entry L122D): as the sequence (Q9NPC2 whole entry) above, with L122D counted along it
T4 sequence (O35111 whole entry): as the sequence (O35111 whole entry) above
T4 sequence (Q3LS21 whole entry): as the sequence (Q3LS21 whole entry) above
T10 sequence (Q9NPC2 whole entry V242D): as the sequence (Q9NPC2 whole entry) above, with V242D counted along it
T1 sequence (Q3LS21 1-249 limits assumed, stated change not applied): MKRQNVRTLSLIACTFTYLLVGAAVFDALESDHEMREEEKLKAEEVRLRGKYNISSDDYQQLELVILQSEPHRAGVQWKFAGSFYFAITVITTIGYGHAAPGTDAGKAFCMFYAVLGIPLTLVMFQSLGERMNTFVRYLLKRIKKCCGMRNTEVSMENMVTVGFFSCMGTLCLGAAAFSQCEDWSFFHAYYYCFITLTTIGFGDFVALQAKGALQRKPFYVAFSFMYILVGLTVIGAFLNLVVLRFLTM
T8 sequence (Q3LS21 whole entry): as the sequence (Q3LS21 whole entry) above
T8 sequence (O35111 whole entry): as the sequence (O35111 whole entry) above
T13 sequence (Q9NPC2 1-249 limits assumed, stated change not applied): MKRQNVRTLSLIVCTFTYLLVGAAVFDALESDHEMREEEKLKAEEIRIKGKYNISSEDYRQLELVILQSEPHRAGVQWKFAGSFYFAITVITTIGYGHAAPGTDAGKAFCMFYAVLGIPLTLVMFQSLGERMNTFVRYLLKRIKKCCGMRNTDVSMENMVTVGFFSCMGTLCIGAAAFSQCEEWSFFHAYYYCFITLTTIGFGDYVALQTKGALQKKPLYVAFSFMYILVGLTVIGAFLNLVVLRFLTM
T3 sequence (Q9NPC2 whole entry G236D): as the sequence (Q9NPC2 whole entry) above, with G236D counted along it

Structure (SMILES): CCN1CC(CCN2CCOCC2)C(c2ccccc2)(c2ccccc2)C1=O (stereo not shown) [doxapram, 1‐ethyl‐4‐(2‐morpholinoethyl)‐3,3‐diphenyl‐2‐pyrrolidinone]
- inhibition at 10 µM [1]: 4%
- EC50 [2]: 37 µM
- inhibition of human TASK-3 current ([3]; 10 µM, acute application, WT): 62%
- recovery from inhibition of TASK-3 ([3]; 10 µM, washout): faster and more complete
- Hill slope, human TASK-3 [3, 17]: 0.8
- inhibition at 10 µM ([3]; tsA201, 10 µM, acute application, WT, read-out: inhibition of human TASK-3 current): 68%
- EC50 ([3]; tsA201 cells, whole-cell patch clamp, room temperature, read-out: EC50, inhibition of human TASK-3 current): 2500 nM
- inhibition at 10 µM [4]: 26%
- inhibition at 10 µM [5]: 58%
- recovery from inhibition of TASK-1 ([6]; 10 µM, washout): slow and mostly incomplete
- Hill slope, human TASK-1 [6, 17]: 0.8
- inhibition at 10 µM ([6]; tsA201, 10 µM, acute application, read-out: inhibition of human TASK-1 current): 55%
- EC50 ([6]; tsA201 cells, whole-cell patch clamp, room temperature, read-out: EC50, inhibition of human TASK-1 current): 4 µM
- EC50 ([7]; cloned rat channels): 410 nM
- fold more potent on TASK-1 or heteromultimers of TASK-1 and TASK-3 than on TASK-3 ([7]; rat channels): 90 fold
- EC50 [8]: 9 µM
- EC50 ([9]; estimated, read-out: 50% effective concentration, murTASK-3): ≥ 100 µM
- inhibition at 10 µM ([9]; tsA201, 10 µM, acute application, read-out: current inhibition of murTASK-3): 21%
- inhibition at 100 µM ([9]; tsA201, 100 µM, acute application, read-out: current inhibition of murTASK-3): 56%
- inhibition at 10 µM [10]: 7%
- inhibition at 10 µM [11]: 42%
- inhibition at 10 µM [12]: 13%
- inhibition at 10 µM [13]: 27%
- inhibition at 10 µM ([14]; 10 µM (Figure 6C), read-out: percentage inhibition of TASK-3_L122D): 6%
- EC50 ([15]; calculated from concentration-response curve, read-out: 50% effective concentration, murTASK-1): 1500 nM
- inhibition at 1 µM ([15]; tsA201, 1 µM, acute application, read-out: current inhibition of murTASK-1): 28%
- inhibition at 3 µM ([15]; tsA201, 3 µM, acute application, read-out: current inhibition of murTASK-1): 43%
- inhibition at 10 µM ([15]; tsA201, 10 µM, acute application, read-out: current inhibition of murTASK-1): 58%
- inhibition at 10 µM [16]: 19%

Structure (SMILES): [Cl-].[Cl-].[Zn+2] [zinc, Zinc Chloride]
- inhibition of human TASK-3 current ([3]; 100 µM, acute application, WT): 94%
- inhibition of TASK-3_L122D ([14]; 100 µM): 87%
